Legend:
caspase 3/7 = test: Caspase-Glo 3/7 luminometric assay; type: cell-based; conditions: 10 μmol/L, 48 h, panel of human cancer cell lines
Method: Enzymatic caspase activity was determined after exposing the cells to compound 1, 2 and 5 at 10 μmol/L for 48 h. Caspase 3/7 activity was measured with the luminometric Caspase-Glo 3/7assay (Promega, Madison, WI, USA) using a Synergy HT multi-detection microplate reader (Bio-Tek).

1BR3G = test: MTT cytotoxicity assay; type: cell-based; conditions: Homo sapiens, 48 h of treatment, non malignant cells
Method: (§1) The cytotoxic activity of the compounds was determined by MTT reduction assay as described. Compounds were diluted in Milli-Q water to obtain 1 mmol/L stock solutions. Appropriate aliquots of these solutions were diluted in the corresponding cell culture medium to obtain the final working concentrations. Aliquots of 5000 1BR3G cells, 6000 MCF-7, 6000 PC-3 cells, 10 000 CAPAN-1 cells, 4000 MCF 10A cells, 4000 HMLE cells or 4000 CCD-18Co cells were seeded in 96-well plates, 24 h prior to the treatments. Hematological cell lines were seeded at 400 000 cells/mL. Cells were treated with the corresponding compound at concentrations ranging from 0 to 100 μmol/L for 48 h. Three replicates for each compound were used. The IC50 was established for each compound by standard non-linear regression and curve fitting using GraphPad Prism (Graph Pad software Inc., La Jolla, CA, USA).

Z-138 = test: MTT cytotoxicity assay; type: cell-based; conditions: Homo sapiens, 48 h of treatment
Method: as §1

MCF-10A = test: MTT cytotoxicity assay; type: cell-based; conditions: Homo sapiens, 48 h of treatment, non malignant cells
Method: as §1

JURKAT = test: MTT cytotoxicity assay; type: cell-based; conditions: Homo sapiens, 48 h of treatment
Method: as §1

HMLE = test: MTT cytotoxicity assay; type: cell-based; conditions: Homo sapiens, 48 h of treatment, non malignant cells
Method: as §1

CCD-18Co = test: MTT cytotoxicity assay; type: cell-based; conditions: Homo sapiens, 48 h of treatment, non malignant cells
Method: as §1

PC-3 = test: MTT cytotoxicity assay; type: cell-based; conditions: Homo sapiens, 48 h of treatment
Method: as §1

[1] = test system: tumor (PC-3, Z-138 and JURKAT) cell lines; test: MTT cytotoxicity assay, tumor cell selection; type: cell-based; conditions: Homo sapiens, range over PC-3, Z-138 and JURKAT, 48 h, read-out: IC50 values against tumor cells (range)
Method: as §1

CAPAN-1 cells = test: Cellular labile iron pool with calcein-AM; type: cell-based, human; conditions: CAPAN-1, 10 μmol/L, 24 h
Method: The cellular labile iron pool was determined with calcein-AM. CAPAN-1 cells (125 000 cells/ well) were seeded in 24-well plates and incubated for 24 h. Then, cells were treated for 24 h with 10 μmol/L of compound 1, 2 or 5 at 37°C. In some experiments, cells were incubated for 2 h with 100 μmol/L of DFO or 100 μmol/L FeCl2. Cells exposed to the vehicle alone were used as a control. After treatments, cells were washed with PBS and incubated with calcein-AM (0.25 μmol/L) for 30 min at 37°C in the dark. Subsequently, cells were washed and collected with trypsin and the geometric mean fluorescence intensity of 10 000 cells was determined by flow cytometry as described.

HMLER cells = test: MTT cytotoxicity assay in non-CS-like parental cells; type: cell-based; conditions: Homo sapiens, 48 h
Method: as §1
Fig 2 Cell viability assay. (A) Cytotoxic activity of compounds 1, 2, and 5 against cancer cells. The indicated cell lines were treated for 48 h with ligands (10 μmol/L) and cell viability was measured with the MTT assay. Data represents the percentage of viable cells relative to untreated cells (control). (B) Cytotoxicity of doxorubicin and compounds 1, 2 and 5 against CS-like cells. CS-like HMLER-shEcad cells and non-CS-like HMLER isogenic parental cells were treated for 48 h with graded concentrations of doxorubicin, 1, 2 and 5. Cell viability was measured with the MTT assay. For each treatment, the percentage of viable cells relative to untreated cells is indicated. Data represents the mean±SD of 3 independent experiments performed in triplicate.

MCF-7 cells [2] = test: Cellular labile iron pool with calcein-AM; type: cell-based, human; conditions: MCF-7, pre-incubation with ligands
MCF-7 and CAPAN-1 cells = test: MTT cell viability with modulators (QVD-Oph, FeCl2); type: cell-based, human; conditions: 48 h; for effect of FeCl2 co-incubation on cytotoxicity of the ligand: FeCl2 100 μmol/L co-incubation, 2 at 5 μmol/L, 1 and 5 at 10 μmol/L
Method: as §1
Fig 4 Induction of caspase activity. (A) The indicated cell lines were treated for 48 h with compounds 1, 2 and 5 (10 μmol/L) and caspase 3/7 activity was measured as indicated in Materials and Methods. Bar charts show the fold increase in caspase activity relative to untreated (control) and represent the mean±SD from three independent experiments performed in triplicate. (B) MCF-7 and CAPAN-1 cells were treated for 48 h with the ligands (10 μM) in the absence (-) or presence (+) of the pan-caspase inhibitor QVD-Oph (20 μM) and cell viability was measured with the MTT assay. […] Data represents the mean ± SD of 3 independent experiments performed in triplicate. The differences between absence and presence of QVD-OPh treatment were statistically significant at * p<0.05, **p<0.01 and ***p<0.001.
Fig 9 Effects of iron on 1, 2 and 5 activity. (A) Effect of 2 h FeCl2 pre-incubation (FeCl2 p) (dotted line) or co-incubation (FeCl2 c) (dashed line) at 1, 10 or 100 μmol/L on the cytotoxicity of 2 (5 μmol/L) in MCF-7 and CAPAN-1 cells. FeCl2 alone was included as a control (solid line). Cell viability was determined after 48 h of treatment by the MTT assay. (B) Effect of FeCl2 pre-incubation or co-incubation (100 μmol/L) on the cytotoxicity of 2 (5 μmol/L), 1 and 5 (10 μmol/L). Cells treated with the ligands alone were included as a reference (control). (C) ROS induction in CAPAN-1 cells after 24 h treatment with 2 (10 μmol/L) alone, together with FeCl2 or after FeCl2 pre-incubation (at 100 μmol/L). Results are presented as a percentage of untreated cells and represent mean±SD of 3 independent experiments. *p < 0.05 versus control cells.

MCF-7 cells [3] = test: Cellular DNA damage, p-H2A.X flow cytometry; type: cell-based, human; conditions: MCF-7, 10 μmol/L, time-dependent
Method: DNA damage was assessed by monitoring the intensity of p-H2A.X fluorescence using flow cytometry. Briefly, cells were collected with trypsin, washed in PBS and fixed in 3.7% formaldehyde for 15 min on ice. Cells were then permeabilised with 0.2% v/v Triton-X100 for 10 min and incubated with 1:400 rabbit anti-p-(S139)-H2A.X antibody (Cell Signaling Technology, Danvers, MA) for 30 min on ice. After washing in 0.1% Triton-X100 in PBS, cells were incubated with 1:400 anti-rabbit Alexa 555-conjugated antibody (Jackson ImmunoResearch, Newmarket, UK) for 20 min on ice. Analysis was carried out in a FACScan flow cytometer with Flowing software.

| Compound | caspase 3/7 activation (caspase 3/7) | IC50 (1BR3G) [µM] | IC50 (Z-138) [µM] | IC50 (MCF-10A) [µM] | IC50 (JURKAT) [µM] | IC50 (HMLE) [µM] | IC50 (CCD-18Co) [µM] | IC50 (PC-3) [µM] | IC50 [1] [µM] | calcein fluorescence intensity, % of untreated cells (CAPAN-1 cells) [%] | IC50 (HMLER cells) [µM] | calcein fluorescence compared with untreated cells (MCF-7 cells [2]) | effect of FeCl2 co-incubation on cytotoxicity of the ligand (MCF-7 and CAPAN-1 cells) | increase in phosphorylated H2A.X (MCF-7 cells [3]) | increase in cell viability by pan-caspase inhibitor QVD-Oph (MCF-7 and CAPAN-1 cells; ligand 10 μM, QVD-Oph 20 μM) |
| --- | --- | --- | --- | --- | --- | --- | --- | --- | --- | --- | --- | --- | --- | --- | --- |
| c1ccc(CN2CCC[C@H]2[C@@H]2CCCN2Cc2ccccn2)nc1 [Compound 1] | significant caspase 3/7 activation in lymphoma (Z-138, Jeko-1, Granta and SP-53) but not in leukemia (JURKAT) or glioma (LN229 and U87MG) cell lines | 12.7 ± 1.6 | 4.8 ± 1.2 | 18.8 ± 2.9 | 15.1 ± 3.1 | 6.4 ± 4 | 27 ± 4.4 | 8.5 ± 1.4 | 4.8 to 15.1 | 141.4±19.5 | 6.5 ± 0.4 | 131.4±13.2% | inhibited the cytotoxicity of the ligand in CAPAN-1, but not in MCF-7 cells | three fold |  |
| CN(C)c1ccnc(CN2CCC[C@H]2[C@@H]2CCCN2Cc2cc(N(C)C)ccn2)c1 [Compound 2] | clearly increased caspase 3/7 activity in all cell lines | 7.5 ± 0.5 | 4.4 ± 0.3 | 6.5 ± 1.3 | 7.2 ± 1.9 | 7 ± 0.3 | 20.7 ± 0.3 | 3.8 ± 0.2 | 3.8 to 7.2 | 136.8±11.7 | 6.6 ± 0.3 | 133.8±10.02% | clearly inhibited | three fold | lack of reversion |
| CN1CCN(Cc2ccccn2)CCN(Cc2ccccn2)CC1 [Compound 5] | activating caspase 3/7 in most cell lines except PC-3 cells | 18 ± 4.2 | 2.9 ± 0.4 | 23.8 ± 1.3 | 5.4 ± 1.3 | 6.1 ± 0.1 | 53.5 ± 3.5 | 7.7 ± 0.3 | 2.9 to 7.7 | 144.6±13.8 | 5.1 ± 0.1 | only a moderate iron-chelating effect | Neither pretreatment nor co-incubation with FeCl2 affected | four fold |  |

— publication PMC4569415, “Pro-Oxidant Activity of Amine-Pyridine-Based Iron Complexes Efficiently Kills Cancer and Cancer Stem-Like Cells” (PLoS ONE, 2015)
